Results published in patent publication US20090016989A1, “ANTIBODIES TO HUMAN SOMATOSTATIN RECEPTOR AND METHODS OF USE” (priority 2007, published 2009).

What was measured:
BON cells [1] = assay: Guava Nexin apoptosis assay (Annexin V / 7-AAD); assay type: cell-based, human; conditions: 6 hours after treatment with staurosporin, % of Total
Experimental: Cells were then switched to growth media without FBS and allowed to grow for another 24 hours before applying treatments. Samples were collected and counted in accordance with Guava Technologies' Viacount Flex (Cat#4500-0110) instructions. At the end of each antibody treatment, cells were dissociated from the plate using 1× trypsin-EDTA (Invitrogen Cat#2520). […] Next, phosphate buffer solution (D-PBS) (Invitrogen Cat#14190-144) (Invitrogen) was used as the exchange buffer to resuspend the cell pellet. […] Detection was achieved by using Guava PCA96 instrument and data was analysed by using Guava Nexin software module as (Cat#0500-0250). […] Following the protocol for the Guava Nexin™ assay (Guava Technologies), two different dyes were used to stain for cells undergoing apoptosis: 7-AAD stains for dead and late apoptosis cells (upper right quadrant of each graph in FIG. 10), and Annexin V stains for cells undergoing apoptosis from the early stage (lower right quadrant of each graph in FIG. 10). […] Once every 24 hours for 72 hours (FIGS. 10B, 10C and 10D), cells were collected and tested for apoptosis status using the Guava Nexin™ assay (Guava Technologies).

BON cells [2] = assay: Guava Nexin apoptosis assay (Annexin V / 7-AAD); assay type: cell-based, human; conditions: 6 hours after treatment with staurosporin, % of Total; remark: listed apart in the source

CN[C@@H]1C[C@H]2O[C@@](C)([C@@H]1OC)n1c3ccccc3c3c4c(c5c6ccccc6n2c5c31)C(=O)NC4 [Staurosporine]
Early apoptotic cells (Lower Right Quadrant) (BON cells [1]): 28.7%
Late apoptotic cells (Upper Right Quadrant) (BON cells [1]): 23.7%
Live, healthy cells (Lower Left Quadrant) (BON cells [1]): 46.7%
Annexin V+ (BON cells [2]): 52.3%
Nuclear Debris (Upper Left Quadrant) (BON cells [2]): 1.0%
